Values of other authors, collected in patent US10369157B1 (priority 2018, dated 2019).

Experiments:
rats = settings: rat, in vivo
[1] = system: adrenergic alpha-2 receptors

CCOC(=O)C1(c2ccccc2)CCN(C)CC1 [pethidine]
Minimum ratio of DL50 to DE50 (rats): 4.6

CN1CC[C@]23c4c5ccc(O)c4O[C@H]2[C@@H](O)C=C[C@H]3[C@H]1C5 [morphine]
Minimum ratio of DL50 to DE50 (rats): 69.5

Cc1cccc([C@H](C)c2cnc[nH]2)c1C [Dexmedotomidine, 5-[(1S)-1-(2,3-dimethylphenyl)ethyl]-1H-imidazole]
Affinity towards adrenergic alpha-2 receptors compared with Clonidine [1]: increased affinity

CNC1(c2ccccc2Cl)CCCCC1=O (centres unmarked) [Ketamine, 2-(2-chlorophenyl)-2-(methylamino)cyclohexan-1-one]
Dose recovered through excreted feces (studies in humans): approximately 3% | Dose recovered through urine (studies in humans): approximately 91% | Clinical effects observed on patients following administration (patients; human, in vivo): increased blood pressure, increased muscle tone (may resemble catatonia), opening of the eyes (usually accompanied by nystagmus), and increased myocardial oxygen consumption

Cc1ncc2n1-c1ccc(Cl)cc1C(c1ccccc1F)=NC2 [Midazolam, 8-chloro-6-(2-fluorophenyl)-1-methyl-4H-imidazo[1,5-a][1,4]benzodiazepine]
Passage through the placenta into fetal circulation (humans): slowly pass through the placenta | Presence in human milk (humans): small amounts

OCc1ncc2n1-c1ccc(Cl)cc1C(c1ccccc1F)=NC2 [alpha-hydroxymidazolam]
Elimination half-life (metabolite): < 1 h | Plasma concentrations relative to the parent compound (metabolite of the sleep inducing agent): approximately 12% | Contribution to the effects of the sleep inducing agent (patients; intravenous administration): approximately 10%

Clc1cccc(Cl)c1NC1=NCCN1 [Clonidine, N-(2,6-dichlorophenyl)-4,5-dihydro-1H-imidazol-2-amine]
Absorption by the human body (in vivo): well absorbed | Effect on pulse rate in treated patients (patients; most patients): decrease in pulse rate

Oc1cc(Cl)c(NC2=NCCN2)c(Cl)c1 [p-hydroxyclonidine]
Pharmacological activity of the major metabolite (patients; human, in vivo): pharmacologically inactive
